Tests used:
Arabidopsis seedlings = assay: Hypocotyl length / plant height of seedlings treated with brassinosteroid mimetic (FIG. 1, FIG. 2); assay type: in vivo; conditions: versus untreated plants
Procedure: (A) Arabidopsis seedlings were grown for 7 days in light in the presence of increasing concentrations of a brassinosteroid mimetic of the disclosure. (B) a photo of seedlings grown at 0 and 20 μM of brassinosteroid mimetic.
The brassinosteroid mimetics of the disclosure were tested and shown to block ethylene response by hyperactivating brassinosteroid signaling. The application of any one of the brassinosteroid mimetics of the disclosure, which are all closely related, results in massive increases in plant size. […] Additionally, reduction of internal concentrations of brassinosteroids by inhibition of brassinosteroid biosynthesis reduces the effects of the mimetic on growth. In FIG. 1, one can see the promotive effects of F1874-0108 (inset), a brassinosteroid mimetic of the disclosure, on plant height, with chemical treated plants being almost 100% taller than untreated plants. Hyperactivation of brassinosteroid signaling represents an effective means to increase plant biomass and increase the capability of plants with regard to disease resistance and other brassinosteroid regulated phenomena.

[1] = system: seedlings treated with an inhibitor of BR synthesis (brassinazole); assay: Hypocotyl length of seedlings with brassinosteroid synthesis inhibited by brassinazole (FIG. 1, FIG. 3); assay type: in vivo, Arabidopsis
Procedure: Seedlings were treated with an inhibitor of BR synthesis (brassinazole; (BZ)). […] This is not consistent with what is seen for Bikinin, which is a constitutive activator of BR signaling and would be independent of BR synthesis (i.e. treatment with BZ would not result in inhibition of hypocotyl length in the presence of BZ).
In FIG. 1, brassinosteroid production was limited by addition of brassinazole (BZ, which is a chemical inhibitor of brassinosteroid biosynthesis). […] In stark contrast, addition of brassinolide plus mimetic severely curtails this burst in growth because mimetic prevents the full inhibition of BIN2.

bri1-6 mutant seedling = assay: Growth of mutant seedling defective in brassinosteroid receptor BRI1 (FIG. 4); assay type: in vivo

Compound: CCOC(=O)CSc1ncnc2c1cnn2-c1ccccc1 [F1874-0108]
- plant height, chemical treated plants taller than untreated plants (Arabidopsis seedlings): ~100%
- seedling length versus BZ treated only ([1]; BZ treated, no exogenous brassinolide added): substantially longer

Compound: CC(C)[C@H](C)[C@@H](O)[C@H](O)[C@@H](C)[C@H]1CC[C@H]2[C@@H]3COC(=O)[C@H]4C[C@H](O)[C@H](O)C[C@]4(C)[C@H]3CC[C@]12C [brassinolide]
- increase in length of BZ seedlings ([1]; BZ treated, exogenous brassinolide added back): ~400%

Compound: O=C(O)CCC(=O)Nc1ccc(Br)cn1 [Bikinin]
- activation of BR pathway / hypocotyl growth (bri1-6 mutant seedling): promotion of long hypocotyls independent of BR

Compound: CC(O)(c1ccccc1)C(Cc1ccc(Cl)cc1)n1cncn1 (centres unmarked) [brassinazole]
- hypocotyl length ([1]; FIG. 3, BZ alone): shortening of the hypocotyls

Source: US10538522B2, “Brassinosteroid mimetics” (The Regents of the University of California, priority 2015, dated 2020)
